Measurements as given in patent US12558442B2, “Biological fluid treatment systems” (priority 2019, dated 2026).

System: Klebsiella pneumoniae
Assay: Photochemical inactivation of K. pneumoniae in plasma or platelets in PAS with amotosalen and UVA LED illumination
Type: cell-based
Conditions: 150 μM amotosalen nominal, triplicate

In the case of `Cc1oc2c(C)c3oc(=O)cc(C)c3cc2c1COCCN` [S-59, 3-(2-aminoethoxymethyl)-2,5,9-trimethylfuro[3,2-g]chromen-7-one], the “Log Inactivation” value (plasma, INTERCEPT plasma set, 6.4 J/cm^2, UVA LEDs 346-349 nm) is reported as 6.3 ± 0.3 log, the “Log Inactivation” value (plasma, INTERCEPT plasma set, 6.4 J/cm^2, UVA LEDs 346-349 nm, listed as amotosalen) is reported as 6.3±0.3 log and the “Log Inactivation” value (platelets/PAS, LV set, 3.9 J/cm^2, UVA LEDs 346-349 nm) is reported as 7.2 ± 0.2 log. For the same molecule, the “Log Inactivation” value (platelets/PAS, LV set, 3.9 J/cm^2, UVA LEDs 346-349 nm, listed as amotosalen) was 7.2±0.2 log.
